Assay [1] addresses human KAT6B (Homo sapiens (Human), UniProt Q8WYB5). The assay is described as follows: KAT6B enzyme activity assay (AlphaScreen method). The format is biochemical. The conditions noted are these: inhibition of the enzyme human KAT6B. The source says:
Test Example 2: KAT6B Enzyme Activity Assay (AlphaScreen Method)
I. Reagents and Instrument
• 1. KAT6B (718-1008) (ActiveMotif, 81224) • 2. Bovine serum albumin (Sangon, A500023-0100) • 3. 2 M Tris-HCl solution, pH 7.8, sterile (Sangon, B548140-0500) • 4. EDTA (0.5 M), pH 8. 0, RNase-free (Thermofisher, AiM9260G) • 5. Tween-20 (Sangon, A100777-0500) • 6. DTT, 1 M (Invitrogen, P2325) • 7. Acetyl coenzyme A (Ac-CoA, CAYMAN, Cat. No. 16160) • 8. Recombinant histone H3.1 biotinylated (human) (Active Motif 31696) • 9. 384-well plate, light gray (Perkin Elmer, Cat. No. 6007290) • 10. Anacardic acid (MCE, Cat. No. HY—N2020) • 11. AlphaScreen streptavidin donor beads, 5 mg (PerkinElmer, 6760002) • 12. AlphaScreen protein A acceptor beads, 5 mg (PerkinElmer, 6760137M) • 13. Acetylated-lysine antibody #9441 (CST 9441S) • 14. DMSO (Tansoole, G7592B) • 15. PHERA star microplate reader (BMG labtech)
a. 1× buffer 2: 50 mM Tris-HCl, pH 7.8; 0.1 mM EDTA; 0.01% v/v tween-20; 1 mM DTT; 0.01% m/v bovine serum albumin.
b. KAT6B enzyme solution: 3 nM (final concentration), prepared in buffer 2.
c. Mixed substrate of Ac-CoA and H3: a mixed substrate of 30 nM (final concentration) Ac-CoA and 30 nM (final concentration) H3, prepared in buffer 2.
d. Compounds: initial concentration of 10 mM, 4-fold dilution, 10 gradient concentrations. All compound concentrations were diluted 2500-fold with buffer 2 for later use.
e. Assay reagent: 8 ng/μL (final concentration) AlphaScreen protein A acceptor beads, 8 ng/μL AlphaScreen streptavidin donor beads, 1:1000 diluted acetylated-lysine antibody, and 100 μM anacardic acid; prepared in buffer 2.
(§1) 2. Experimental Procedure
a. The prepared compound solutions were added to a 384-well plate at 2 μL/well, and 2 μL of buffer 2 (containing 0.04% DMSO) was added to each Min well and each Max well as controls. The plate was centrifuged.
b. The prepared enzyme solution was added at 2 μL/well, and 2 μL of buffer 2 was added to each Min well. The plate was centrifuged, shaken for 2 min, and incubated at room temperature for 10 min.
c. The mixed substrate of Ac-CoA and H3 was added at 4 μL/well, and the plate was centrifuged, shaken for 2 min, and incubated at room temperature for 120 min.
d. The assay reagent was added at 4 μL/well, and the plate was centrifuged, shaken for 2 min, and incubated in the dark at room temperature for 120 min.
(§2) e. Plate reading was performed on the microplate reader, and AlphaScreen counts were recorded.
f. Dose-response curves were plotted using log(inhibitor) vs. response of the graphpad prism software, with the abscissa representing the logarithm of the compound concentration and the ordinate representing the calculated enzyme activity inhibition rate, and IC50 values were calculated.

Assay [2] addresses human KAT6A (Homo sapiens (Human), UniProt Q92794). The assay is described as follows: KAT6 enzyme activity assay (AlphaScreen method), KAT6A. The conditions noted are these: inhibition of the enzyme human KAT6A. The format is biochemical.
Excerpt: Test Example 1: KAT6 Enzyme Activity Assay (AlphaScreen Method)
I. Reagents and instrument • 1. KAT6A (customized by Chempartner) • 2. Ovalbumin (Sigma-Aldrich, A5378-5G) • 3. 2 M Tris-HCl solution, pH 7.8, sterile (Sangon, B548140-0500) • 4. 5 M NaCl solution (Sangon, B548121-0100) • 5. EDTA (0.5 M), pH 8.0, RNase-free (Thermofisher, AM9260G) • 6. Tween-20 (Sangon, A100777-0500) • 7. DTT, 1 M (Invitrogen, P2325) • 8. Acetyl coenzyme A (Ac-CoA, CAYMAN, Cat. No. 16160) • 9. Recombinant histone H3.1 biotinylated (human) (Active Motif 31696) • 10. 384-well plate, light gray (Perkin Elmer, Cat. No. 6005350) • 11. Anacardic acid (MCE, Cat. No. HY—N2020) • 12. AlphaScreen streptavidin donor beads, 5 mg (PerkinElmer, 6760002) • 13. AlphaScreen protein A acceptor beads, 5 mg (PerkinElmer, 6760137M) • 14. Acetylated-lysine antibody #9441 (CST 9441S) • 15. PHERA star microplate reader (BMG labtech) • II. Experimental method
a. 1× assay buffer: 100 mM Tris-HCl, pH 7.8; 15 mM NaCl; 1 mM EDTA; 0.01% tween-20; 1 mM DTT; 0.01% m/v ovalbumin.
b. KAT enzyme solution: 1.25 nM (final concentration), prepared in 1× assay buffer.
c. Mixed substrate of Ac-CoA and H3: a mixed substrate of 1000 nM (final concentration) Ac-CoA and 55 nM (final concentration) H3, prepared in 1× assay buffer.
d. Compounds: initial concentration of 100 μM, 3-fold dilution, 10 gradient concentrations. All compound concentrations were diluted 83-fold with 1× assay buffer for later use.
e. Assay reagent: 8 ng/μL (final concentration) AlphaScreen protein A acceptor beads, 8 ng/μL AlphaScreen streptavidin donor beads, 1:1500 diluted acetylated-lysine antibody, and 100 μM anacardic acid; prepared in 1× assay buffer.
as §1
a. The prepared enzyme solution was added to a 384-well plate at 3 μL/well, and 3 μL of 1× assay buffer was added to each well in columns 23 and 24 (Min).
b. 3 μL of compound solution was added to each well, and 3 μL of buffer was added to each Min well; 3 μL of DMSO solution was added to each well in columns 1 and 2 (Max) as controls. The plate was centrifuged, shaken for 2 min, and incubated at room temperature for 15 min.
c. The mixed substrate of Ac-CoA and H3 was added at 6 μL/well, and the plate was centrifuged, shaken for 2 min, and incubated at room temperature for 20 min.
d. The assay reagent was added at 6 μL/well, and the plate was centrifuged, shaken for 2 min, and incubated in the dark at room temperature for 120 min.
as §2
f. Plotting was performed using the Graphpad software, and the IC50 values of the compounds were calculated.
(Alpha assays give light when donor and acceptor beads are brought close together.)

Structures are written as SMILES.

Chain of human KAT6A (Q92794 whole entry): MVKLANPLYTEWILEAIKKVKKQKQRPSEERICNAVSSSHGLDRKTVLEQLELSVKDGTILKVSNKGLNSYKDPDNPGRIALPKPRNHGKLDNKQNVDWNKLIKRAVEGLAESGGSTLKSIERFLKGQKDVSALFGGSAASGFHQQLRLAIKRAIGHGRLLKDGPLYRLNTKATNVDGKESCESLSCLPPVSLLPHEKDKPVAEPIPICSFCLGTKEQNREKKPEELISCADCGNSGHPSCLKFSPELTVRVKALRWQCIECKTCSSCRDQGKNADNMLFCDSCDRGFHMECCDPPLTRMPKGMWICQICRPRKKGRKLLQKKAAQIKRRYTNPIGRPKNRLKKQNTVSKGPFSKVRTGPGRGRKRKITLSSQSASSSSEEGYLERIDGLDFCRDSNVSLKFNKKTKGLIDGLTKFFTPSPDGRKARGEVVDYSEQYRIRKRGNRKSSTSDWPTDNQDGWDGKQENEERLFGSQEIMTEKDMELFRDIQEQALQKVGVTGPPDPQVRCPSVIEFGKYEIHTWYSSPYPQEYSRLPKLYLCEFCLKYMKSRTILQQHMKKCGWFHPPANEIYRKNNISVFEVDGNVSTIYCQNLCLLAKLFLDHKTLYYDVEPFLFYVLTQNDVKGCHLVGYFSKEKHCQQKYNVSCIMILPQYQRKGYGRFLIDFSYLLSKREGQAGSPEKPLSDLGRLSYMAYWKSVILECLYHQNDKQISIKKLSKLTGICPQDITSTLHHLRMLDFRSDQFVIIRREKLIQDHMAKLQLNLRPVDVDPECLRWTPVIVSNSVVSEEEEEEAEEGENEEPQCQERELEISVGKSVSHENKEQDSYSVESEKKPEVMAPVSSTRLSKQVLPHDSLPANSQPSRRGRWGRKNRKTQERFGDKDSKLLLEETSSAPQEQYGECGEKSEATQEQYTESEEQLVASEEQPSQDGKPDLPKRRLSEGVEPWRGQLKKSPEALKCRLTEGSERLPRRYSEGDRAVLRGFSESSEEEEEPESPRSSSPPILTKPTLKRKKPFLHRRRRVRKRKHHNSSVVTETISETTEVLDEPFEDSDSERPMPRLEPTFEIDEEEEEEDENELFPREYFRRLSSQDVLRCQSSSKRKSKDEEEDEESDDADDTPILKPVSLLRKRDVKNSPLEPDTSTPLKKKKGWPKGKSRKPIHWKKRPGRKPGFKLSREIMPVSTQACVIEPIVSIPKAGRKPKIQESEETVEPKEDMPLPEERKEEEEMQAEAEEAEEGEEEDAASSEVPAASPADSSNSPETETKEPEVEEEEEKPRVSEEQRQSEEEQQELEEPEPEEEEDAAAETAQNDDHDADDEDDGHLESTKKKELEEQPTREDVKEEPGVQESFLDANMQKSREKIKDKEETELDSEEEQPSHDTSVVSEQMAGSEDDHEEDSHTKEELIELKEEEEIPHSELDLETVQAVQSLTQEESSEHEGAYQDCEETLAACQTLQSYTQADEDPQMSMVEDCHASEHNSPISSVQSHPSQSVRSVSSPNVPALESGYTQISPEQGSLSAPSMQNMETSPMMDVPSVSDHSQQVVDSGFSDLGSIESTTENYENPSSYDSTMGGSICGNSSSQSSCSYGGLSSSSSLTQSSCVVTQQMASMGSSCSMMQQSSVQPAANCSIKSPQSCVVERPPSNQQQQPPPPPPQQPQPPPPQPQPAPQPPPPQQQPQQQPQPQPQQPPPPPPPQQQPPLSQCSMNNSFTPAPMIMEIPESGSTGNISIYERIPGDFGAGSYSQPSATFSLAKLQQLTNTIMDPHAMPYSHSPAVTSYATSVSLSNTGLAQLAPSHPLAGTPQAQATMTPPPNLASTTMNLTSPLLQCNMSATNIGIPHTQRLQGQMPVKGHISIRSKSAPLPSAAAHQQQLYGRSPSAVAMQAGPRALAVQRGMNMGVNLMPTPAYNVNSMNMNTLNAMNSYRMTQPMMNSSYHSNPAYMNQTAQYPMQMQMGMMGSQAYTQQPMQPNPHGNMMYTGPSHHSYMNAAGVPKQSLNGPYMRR
Chain of human KAT6B (Q8WYB5 718-1008): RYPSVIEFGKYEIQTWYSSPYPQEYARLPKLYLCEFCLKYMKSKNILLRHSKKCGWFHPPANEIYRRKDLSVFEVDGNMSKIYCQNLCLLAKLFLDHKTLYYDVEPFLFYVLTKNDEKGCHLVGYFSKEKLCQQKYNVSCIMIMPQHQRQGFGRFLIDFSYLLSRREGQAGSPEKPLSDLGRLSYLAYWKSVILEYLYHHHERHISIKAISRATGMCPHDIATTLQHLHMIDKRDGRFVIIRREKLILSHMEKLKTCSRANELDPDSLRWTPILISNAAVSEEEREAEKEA

One may read the IC50 as the concentration that inhibits the measured activity by half. On to `COc1cccc(OC)c1S(=O)(=O)Nc1noc2cc(Cn3cccn3)c3c(c12)OCC3` [Compound 1, N-(4-((1H-pyrazol-1-yl)methyl)-2,3-dihydrobenzofuro[7,6-d]isoxazol-8-yl)-2,6-dimethoxybenzenesulfonamide], for which the figures for the IC50 in assay [1] and in assay [2] were 1100 pM and 600 pM, respectively.
With `COc1cccc(OC)c1S(=O)(=O)Nc1noc2cc(Cn3cccn3)c3c(c12)OCCC3` [Compound 2, N-(5-((1H-pyrazol-1-yl)methyl)-3,4-dihydro-2H-chromeno[8,7-d]isoxazol-9-yl)-2,6-dimethoxybenzenesulfonamide], in assay [1], the IC50 worked out at 700 pM.
On to `COc1ccccc1S(=O)(=O)Nc1noc2cc(Cn3cccn3)c3c(c12)OCCC3` [Compound 3, N-(5-((1H-pyrazol-1-yl)methyl)-3,4-dihydro-2H-chromeno[8,7-d]isoxazol-9-yl)-2-methoxybenzenesulfonamide], for which the figures for the IC50 in assay [1] and in assay [2] were 1400 pM and 500 pM, respectively.
Taken in the same sequence, the figures for `COc1cccc(OC)c1S(=O)(=O)Nc1noc2cc(Cn3cccn3)c3c(c12)OC(F)(F)O3` [Compound 5, N-(4-((1H-pyrazol-1-yl)methyl)-2,2-difluoro-[1,3]dioxolo[4′,5′:5,6]benzo[1,2-d]isoxazol-8-yl)-2,6-dimethoxybenzenesulfonamide] were 1500 pM and 1000 pM.
On to `CCOc1cc(C)ccc1S(=O)(=O)Nc1noc2cc(Cn3cccn3)c3c(c12)OCCC3` [Compound 7, N-(5-((1H-pyrazol-1-yl)methyl)-3,4-dihydro-2H-chromeno[8,7-d]isoxazol-9-yl)-2-ethoxy-4-methylbenzenesulfonamide], for which the IC50 in assay [2] worked out at 500 pM.
Take `Cc1ccc(S(=O)(=O)Nc2noc3cc(Cn4cccn4)c4c(c23)OCCC4)c(OCC(F)(F)F)c1` [Compound 8, N-(5-((1H-pyrazol-1-yl)methyl)-3,4-dihydro-2H-chromeno[8,7-d]isoxazol-9-yl)-4-methyl-2-(2,2,2-trifluoroethoxy)benzenesulfonamide]: in assay [2], the IC50 amounted to 700 pM.
On the same count and under the same terms, under `COc1ccc(F)cc1S(=O)(=O)Nc1noc2cc(Cn3cccn3)c3c(c12)OCCC3` [Compound 9, N-(5-((1H-pyrazol-1-yl)methyl)-3,4-dihydro-2H-chromeno[8,7-d]isoxazol-9-yl)-5-fluoro-2-methoxybenzenesulfonamide] stands 700 pM; under `COc1cccc(OC(F)(F)F)c1S(=O)(=O)Nc1noc2cc(Cn3cccn3)c3c(c12)OCCC3` [Compound 10, N-(5-((1H-pyrazol-1-yl)methyl)-3,4-dihydro-2H-chromeno[8,7-d]isoxazol-9-yl)-2-methoxy-6-(trifluoromethoxy)benzenesulfonamide], 900 pM; under `COc1ccccc1S(=O)(=O)Nc1noc2cc(Cn3cccn3)c3c(c12)OCC3` [Compound 20, N-(4-((1H-pyrazol-1-yl)methyl)-2,3-dihydrobenzofuro[7,6-d]isoxazol-8-yl)-2-methoxybenzenesulfonamide], 2900 pM.
The same measure, in the same setting: next, `COc1cccc(OC(F)(F)F)c1S(=O)(=O)Nc1noc2cc(Cn3cccn3)c3c(c12)OCC3` [Compound 23, N-(4-((1H-pyrazol-1-yl)methyl)-2,3-dihydrobenzofuro[7,6-d]isoxazol-8-yl)-2-methoxy-6-(trifluoromethoxy)benzenesulfonamide]: 4800 pM.
